Like-named read-outs stand apart in the source and are kept apart here.
Legend:
[1] = human, in vivo; cited from earlier work
[2] = system: VK2/E6E7 cells
[3] = system: MPXV; design: species or system C57BL/6 mice; conditions: mouse, in vivo
[4] = system: MPXV strain hMPXV/USA/MA001/2022 (Lineage B.1, Clade IIb); assay type: cell-based, Mpox virus (MPXV)
[5] = system: MPXV (2022 Clade IIb); assay type: cell-based, Mpox virus (MPXV)
[6] = in vitro; conditions: human
[7] = system: MPXV (2022 Clade IIb); test: microbe, parasite or virus in culture; assay type: cell-based, Mpox virus (MPXV); conditions: Monkeypox virus, read-out: IC50 (inhibition of MPXV infection)
[8] = system: MPXV; assay type: cell-based, Mpox virus (MPXV)
[9] = system: phospho-STING; assay type: cell-based, human
[10] = system: phospho-NF-κB; assay type: cell-based, human

Row | Molecule | Duplicate of Duplicate of Hits: No CPE [4] | other results
1 | Nc1ccn(C[C@@H](CO)OCP(=O)(O)O)c(=O)n1 [cidofovir] | – | serious side effects in clinical trials [1]: kidney toxicity
2 | CCNC(=O)N1CCc2cc(OC)c(OCCc3ccc(OC)c(N)c3)cc2C1c1ccc(OC)cc1C (stereo not drawn) [KRAS inhibitor-10] | 1 | CC50 [2]: > 1000 nM; nontoxic up to a concentration [2]: ≤ 1000 nM; skin inflammation and lesions at Day 3 [3]: some low-grade inflammation and lesions; skin inflammation and lesions at Day 12 [3]: fully resolved
3 | COc1ncc(-c2ccc3nccc(-c4ccnnc4)c3c2)cc1NS(=O)(=O)c1ccc(F)cc1F [GSK2126458, Omipalisib] | 1 | antiviral activity at lower concentrations [5]: potent antiviral activity
4 | O=C(Nc1ccc([N+](=O)[O-])cc1Cl)c1cc(Cl)ccc1O [Niclosamide] | 1 | viral inhibition compared to vehicle treatment (percent viral infectivity, Fig. 2B) [5]: strongest viral inhibition; concentration at which toxicity was shown ([2]; human): 80 to 100 nM; CC50 [6]: 96.3 nM; IC50 [7]: 11.8 nM
5 | PI3K/mTOR Inhibitor-11 | 1 | antiviral activity at lower concentrations [5]: potent antiviral activity; CC50 [2]: 421 nM; concentration at which toxicity was shown [2]: 80 to 100 nM
6 | CCOc1cc2ncc(C#N)c(Nc3ccc(F)c(Cl)c3)c2cc1NC(=O)/C=C/CN(C)C [Pelitinib] | 1 | antiviral activity at lower concentrations [5]: potent antiviral activity
7 | Cc1ccc(C(=O)Nc2ccc(CN3CCN(C)CC3)c(C(F)(F)F)c2)cc1C#Cc1cnc2[nH]ncc2c1 [GZD824, Olverembatinib (dimesylate)] | 1 | antiviral activity at lower concentrations [5]: potent antiviral activity
8 | C=CC(=O)Nc1cc2c(Nc3ccc(OCc4ccccn4)c(Cl)c3)ncnc2cc1OCCN1CCOCC1 [MC-Tuxobertinib, Tuxobertinib] | 1 | –
9 | COc1cc(F)c(F)c(Nc2ccc(I)cc2F)c1NS(=O)(=O)C1(C[C@H](O)CO)CC1 [NKIL-Refametinib (RDEA119, Bay 86-9766), Refametinib] | 1 | –
10 | O=C1Nc2cc3[nH]nc(-c4ccncc4)c3cc2CN1Cc1ccccc1 [MC-KO-947, KO-947] | 1 | –
11 | CN(C)C/C=C/C(=O)Nc1cc2c(Nc3ccc(F)c(Cl)c3)ncnc2cc1O[C@H]1CCOC1.O=C(O)/C=C\C(=O)O.O=C(O)/C=C\C(=O)O [MC-Afatinib (dimaleate), Afatinib (dimaleate)] | 1 | –
12 | CC(C)n1nc(-c2ccc3oc(N)nc3c2)c2c(N)ncnc21 [INK-128, Sapanisertib] | 1 | antiviral activity at lower concentrations [5]: potent antiviral activity; concentration at which toxicity was shown ([2]; human): 80 to 100 nM; CC50 [6]: 353 nM; IC50 [7]: 27.1 nM
13 | C=CC(=O)Nc1cccc(Sc2nc(Nc3ccc(N4CCN(C)CC4)cc3)ncc2Cl)c1 [NKIL-WZ8040, WZ8040] | 1 | –
14 | C=CC(=O)Nc1ccc2ncnc(Nc3ccc(OCc4cccc(F)c4)c(Cl)c3)c2c1.Cc1ccc(S(=O)(=O)O)cc1 [NKIL-AST-1306, Allitinib tosylate] | 1 | –
15 | Cc1cccc(/C=N/Nc2cc(N3CCOCC3)nc(OCCc3ccccn3)n2)c1 [MC-Apilimod, Apilimod] | 1 | –
16 | C=CC(=O)Nc1cccc(-c2c(-c3ccccc3)oc3ncnc(N[C@H](CO)c4ccccc4)c23)c1 [MC-EGFR-IN-9, EGFR-IN-9] | 1 | –
17 | CN(C)C/C=C/C(=O)Nc1cc2c(Nc3ccc(F)c(Cl)c3)ncnc2cc1O[C@H]1CCOC1 [NKIL-Afatinib (BIBW2992), Afatinib] | 1 | –
18 | C=CC(=O)Nc1cc(Nc2nccc(-c3c4n(c5ccccc35)CCCC4)n2)c(OC)cc1N(C)CCN(C)C [MC-Oritinib, Oritinib] | 1 | –
19 | O=C(c1ccc(F)c(F)c1Nc1ccc(I)cc1F)N1CC(O)([C@@H]2CCCCN2)C1 (racemic) [MC-Cobimetinib (racemate), Cobimetinib (racemate)] | 1 | –
20 | Cc1c(CN2CCN(C(=O)[C@H](C)O)CC2)sc2c(N3CCOCC3)nc(-c3cnc(N)nc3)nc12 [NKIL-GDC-0980 (RG7422), Apitolisib] | 1 | –
21 | C=CC(=O)Nc1cc(Nc2nccc(-c3cn(C)c4ccccc34)n2)c(OC)cc1N(C)CCN(C)C.CS(=O)(=O)O [MC-Osimertinib (mesylate), Osimertinib (mesylate)] | 1 | –
22 | CCOc1cc2ncc(C#N)c(Nc3ccc(OCc4cccc(F)c4)c(Cl)c3)c2cc1NC(=O)/C=C/CN(C)C [MC-HKI-357, HKI-357] | 1 | –
23 | COc1cc2ncnc(Nc3ccc(F)c(Cl)c3)c2cc1NC(=O)/C=C/CN1CCCCC1 [NKIL-Dacomitinib (PF299804, PF299), Dacomitinib] | 1 | –

Row | Molecule | Duplicate of Duplicate of Hits: No CPE [4] | other results
24 | CCOc1cc2ncc(C#N)c(Nc3ccc(OCc4ccccn4)c(Cl)c3)c2cc1NC(=O)/C=C/CN(C)C [MC-Neratinib, Neratinib] | 1 | –
25 | Cc1cc(C(=O)Nc2nc3cccc(Cl)c3n2[C@@H]2CCCCN(C(=O)/C=C/CN(C)C)C2)ccn1 [MC-Nazartinib, Nazartinib] | 1 | –
26 | Nc1ccc(-c2ccc3ncc4ccc(=O)n(-c5cccc(C(F)(F)F)c5)c4c3c2)cn1 [NKIL-Torin 2, Torin 2] | 1 | –
27 | ZX-29 [MC-ZX-29] | 1 | –
28 | Cc1cc(C(=O)NOCCO)c(Nc2ccc(I)cc2F)n(C)c1=O [NKIL-AZD8330, AZD8330] | 1 | –
29 | C=CC(=O)Nc1cccc(Oc2nc(Nc3ccc(N4CCN(C)CC4)cc3OC)ncc2Cl)c1 [NKIL-WZ4002, WZ4002] | 1 | –
30 | COc1cc2ncnc(Nc3cccc(Br)c3)c2cc1OC.Cl [LOPAC-PD153035 hydrochloride, PD153035 hydrochloride] | 1 | –
31 | CN(C)C/C=C/C(=O)Nc1cc2c(Nc3ccc(F)c(Cl)c3)ncnc2cc1OC(F)F.O=C(O)/C=C\C(=O)O.O=C(O)/C=C\C(=O)O [Mefatinib] | 1 | antiviral activity at lower concentrations [5]: potent antiviral activity
32 | C=CC(=O)Nc1cccc(-n2c(=O)cc(C)c3cnc(Nc4ccc(OCCN(C)C)cc4OC)nc32)c1.O=C(O)C(F)(F)F [MC-EGFR-IN-1 (TFA), EGFR-IN-1 (TFA)] | 1 | –
33 | COc1ncc(-c2ccc3nccc(C#CCN4CCN(S(C)(=O)=O)CC4)c3c2)cc1NS(=O)(=O)c1ccc(F)cc1F [MC-NSC781406, NSC781406] | 1 | –
34 | COc1cc2ncnc(Nc3cccc(Cl)c3)c2cc1OC [LOPAC-Tyrphostin AG 1478, Tyrphostin AG 1478] | 1 | –
35 | CCN1CCC(Nc2ccc3c(c2)/C(=C(\c2cccc(F)c2)c2ncc(C)[nH]2)C(=O)N3)CC1 [MC-Tyrosine kinase-IN-1, Tyrosine kinase-IN-1] | 1 | –
36 | C=CC(=O)Nc1cc2c(Nc3ccc(F)c(Cl)c3)ncnc2cc1C#CC(C)(C)N1CCN(C)CC1 [MC-AV-412 (free base), AV-412 (free base)] | 1 | –
37 | CC#CC(=O)Nc1ccc2ncnc(Nc3cccc(Br)c3)c2c1 [MC-CL-387785, CL-387785] | 1 | –
38 | IRAK4-IN-6 | 1 | viral protein in cell lysates (Western blot) [8]: substantially reduced; phospho-STING expression [9]: significantly increased; CC50 [2]: > 1000 nM; nontoxic up to a concentration [2]: ≤ 1000 nM; phospho-NF-κB expression [10]: significantly increased; visible skin lesions or neutrophil infiltration [3]: none of the mice in the IRAK4-IN-6-treated group had visible skin lesions or neutrophil infiltration
39 | C=CC(=O)Nc1cccc(Oc2nc(Nc3ccc(N4CCN(C)CC4)cc3)nc3ccoc23)c1 [MC-Poseltinib, Poseltinib] | 1 | –
40 | COc1cc2ncnc(Nc3ccc(F)c(Cl)c3)c2cc1OCCN1CC2(CC2)C2(C1)OCCO2 [MC-Simotinib, Simotinib] | 1 | –
41 | O=C(Nc1ncc([N+](=O)[O-])s1)c1ccc([N+](=O)[O-])c(Cl)c1 [SM-7368] | 1 | viral protein in cell lysates (Western blot) [8]: substantially reduced; antiviral activity at lower concentrations [5]: potent antiviral activity; CC50 [2]: > 1000 nM; nontoxic up to a concentration [2]: ≤ 1000 nM; skin inflammation and lesions at Day 3 [3]: some low-grade inflammation and lesions; skin inflammation and lesions at Day 12 [3]: fully resolved
42 | Cc1cccc([C@@H](CO)NC(=O)[C@@H](C)N2Cc3ccc(-c4nc(NC5CCOCC5)ncc4Cl)cc3C2=O)c1 [MC-ERK1/2 inhibitor 1, ERK1/2 inhibitor 1] | 1 | –
43 | C#Cc1cccc(Nc2ncnc3cc(OCCOC)c(OCCOC)cc23)c1 [Erlotinib] | 1 | –
44 | COC1(c2sc3c(N4CCOCC4)nc(-c4cnc(N)nc4)nc3c2C)COC1 [GNE-317] | 1 | CC50 [2]: 201 nM; concentration at which toxicity was shown [2]: 80 to 100 nM
45 | C#Cc1cccc(Nc2ncnc3cc(OC)c(NC(=O)N4C[C@H]5CCN(C)[C@H]5C4)cc23)c1 [MC-Theliatinib, Theliatinib] | 1 | –

From paper doi:10.1101/2025.05.02.651913 (bioRxiv, 2025)
